Data taken from US20250145575A1, “MACROMOLECULE-SUPPORTED 8-SULFONYL-BENZAZEPINE COMPOUNDS AND THEIR USES” (BOLT BIOTHERAPEUTICS, INC., priority 2022, published 2025).

How the values were obtained:
human TLR7 = target: T1, human TLR7 (Homo sapiens, UniProt Q9NYK1); test: HEK293 NFKB reporter assay, human TLR7; format: cell-based; settings: HEK293 reporter cells expressing human TLR7; read-out: HEK293 hTLR7 EC50
T1 construct: host or cells: HEK293 reporter cells
T1 sequence (Q9NYK1 27-1049): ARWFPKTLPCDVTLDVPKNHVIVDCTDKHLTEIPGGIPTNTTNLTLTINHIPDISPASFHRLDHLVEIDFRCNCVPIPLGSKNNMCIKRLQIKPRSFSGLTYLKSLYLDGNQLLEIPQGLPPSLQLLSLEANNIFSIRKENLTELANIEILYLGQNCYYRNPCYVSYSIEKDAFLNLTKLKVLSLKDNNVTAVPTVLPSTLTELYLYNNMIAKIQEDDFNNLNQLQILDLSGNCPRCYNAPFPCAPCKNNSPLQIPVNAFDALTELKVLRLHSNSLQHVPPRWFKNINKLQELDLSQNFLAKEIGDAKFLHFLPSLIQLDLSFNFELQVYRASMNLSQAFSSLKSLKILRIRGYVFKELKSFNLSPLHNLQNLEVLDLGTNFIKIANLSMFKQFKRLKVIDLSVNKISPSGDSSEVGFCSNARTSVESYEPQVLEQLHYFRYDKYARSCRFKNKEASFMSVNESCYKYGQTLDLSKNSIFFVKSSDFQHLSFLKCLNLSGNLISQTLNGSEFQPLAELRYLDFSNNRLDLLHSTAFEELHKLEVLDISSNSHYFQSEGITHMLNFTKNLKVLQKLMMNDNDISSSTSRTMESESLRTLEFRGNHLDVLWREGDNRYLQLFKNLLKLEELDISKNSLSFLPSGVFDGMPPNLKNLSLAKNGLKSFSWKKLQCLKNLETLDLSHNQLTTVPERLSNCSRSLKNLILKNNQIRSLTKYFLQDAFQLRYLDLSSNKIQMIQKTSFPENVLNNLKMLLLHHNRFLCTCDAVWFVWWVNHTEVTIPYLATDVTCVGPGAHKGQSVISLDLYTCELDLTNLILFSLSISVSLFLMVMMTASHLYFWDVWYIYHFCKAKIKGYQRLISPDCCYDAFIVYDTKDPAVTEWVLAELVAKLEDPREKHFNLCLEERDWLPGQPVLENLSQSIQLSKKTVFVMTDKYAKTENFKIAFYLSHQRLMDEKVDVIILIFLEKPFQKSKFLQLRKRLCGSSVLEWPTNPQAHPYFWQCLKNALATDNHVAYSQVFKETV
Description: (§1) Exemplary 8-sulfonyl-2-aminobenzazepine compounds (8SO2Bz) of the invention were synthesized, purified, and characterized by mass spectrometry and shown to have the expected mass. Additional experimental procedures are found in the Examples. Activity against HEK293 NFKB reporter cells expressing human TLR7 or human TLR8 was measured according to Example 202.
(§2) Example 202 HEK Reporter Assay
(§3) HEK293 reporter cells expressing human TLR7 or human TLR8 were purchased from Invivogen and vendor protocols were followed for cellular propagation and experimentation. Briefly, cells were grown to 80-85% confluence at 5% CO2 in DMEM supplemented with 10% FBS, Zeocin, and Blasticidin. Cells were then seeded in 96-well flat plates at 4×10^4 cells/well with substrate containing HEK detection medium and immunostimulatory molecules (MSC). Activity was measured using a plate reader at 620-655 nm wavelength.

human TLR8 = target: T2, human TLR8 (Homo sapiens, UniProt Q9NR97); test: HEK293 NFKB reporter assay, human TLR8; format: cell-based; settings: HEK293 reporter cells expressing human TLR8; read-out: HEK293 hTLR8 EC50
T2 construct: host or cells: HEK293 reporter cells
T2 sequence (Q9NR97 27-1041): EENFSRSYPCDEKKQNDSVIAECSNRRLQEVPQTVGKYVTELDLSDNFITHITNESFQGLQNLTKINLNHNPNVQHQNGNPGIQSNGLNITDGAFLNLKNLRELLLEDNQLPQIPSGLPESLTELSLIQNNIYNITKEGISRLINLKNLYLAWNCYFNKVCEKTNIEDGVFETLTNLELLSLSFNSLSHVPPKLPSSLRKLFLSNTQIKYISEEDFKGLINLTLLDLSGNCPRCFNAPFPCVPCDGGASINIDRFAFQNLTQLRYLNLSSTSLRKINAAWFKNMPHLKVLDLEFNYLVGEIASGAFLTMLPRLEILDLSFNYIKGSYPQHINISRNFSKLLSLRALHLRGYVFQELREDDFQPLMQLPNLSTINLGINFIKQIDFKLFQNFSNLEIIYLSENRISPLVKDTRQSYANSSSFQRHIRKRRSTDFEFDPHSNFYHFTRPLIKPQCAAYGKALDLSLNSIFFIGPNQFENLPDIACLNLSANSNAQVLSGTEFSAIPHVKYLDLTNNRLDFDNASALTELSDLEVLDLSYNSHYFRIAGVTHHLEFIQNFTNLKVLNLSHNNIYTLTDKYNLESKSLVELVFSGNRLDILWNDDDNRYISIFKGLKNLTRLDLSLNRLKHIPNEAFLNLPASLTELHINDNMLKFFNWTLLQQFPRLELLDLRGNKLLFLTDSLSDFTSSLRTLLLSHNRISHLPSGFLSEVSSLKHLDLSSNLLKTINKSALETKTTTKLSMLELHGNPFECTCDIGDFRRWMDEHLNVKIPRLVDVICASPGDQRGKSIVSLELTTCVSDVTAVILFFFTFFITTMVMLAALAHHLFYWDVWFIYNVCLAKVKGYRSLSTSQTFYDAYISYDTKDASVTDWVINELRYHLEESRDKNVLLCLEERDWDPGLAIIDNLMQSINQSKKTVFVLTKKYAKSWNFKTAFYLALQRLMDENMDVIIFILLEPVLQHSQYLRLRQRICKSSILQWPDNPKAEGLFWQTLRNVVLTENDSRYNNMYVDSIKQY
Description: as §1, §2, §3

Structure (SMILES)	EC50 (human TLR7) [nM]	EC50 (human TLR8) [nM]
CCCN(OCC)C(=O)C1=Cc2ccc(S(=O)(=O)NC)cc2N=C(N)C1 [8SO2Bz-3]	> 5000	
CCCN(OCCCC(=O)OC(C)(C)C)C(=O)C1=Cc2ccc(S(=O)(=O)N(C)C)cc2N=C(N)C1 [8SO2Bz-2]	395	< 2.3
CCCN(OCC)C(=O)C1=Cc2ccc(S(=O)(=O)c3ccc(C(=O)OC)cc3)cc2N=C(N)C1 [8SO2Bz-1]	> 9000	
